Source: patent publication US5792635A, “Method of inhibiting the sodium/proton exchanger NHE3 and method of inhibiting growth by administering squalamine” (priority 1995, dated 1998)
≈ marks a conversion by molar mass, not a printed value.

What was measured:
[1] = tested on: S. aureus; test: Antibiotic activity, MIC; assay type: cell-based; conditions: Staphylococcus aureus
[2] = tested on: E. Coli; test: Antibiotic activity, MIC; assay type: cell-based; conditions: Escherichia coli
[3] = tested on: C. albicans; test: Antibiotic activity, MIC; assay type: cell-based; conditions: Candida albicans
[4] = tested on: chick embryo; test: Chick embryo diss. assay (Table II); assay type: in vivo
Method: Using the chick embryo vitelline capillaries assay, compounds were tested for their ability to induce capillary regression. Each compound was applied in 0.1 ml of 15% Ficol 400 and PBS onto the embryo, and vascular regression was assessed after 60 minutes.

[5] = tested on: Xenopus tadpoles; test: Tadpole assay; conditions: Xenopus tadpole assay

Row | SMILES | MIC [1] [µg/mL] | MIC [2] [µg/mL] | MIC [3] [µg/mL] | Minimum Effective Concentration, chick embryo diss. assay [4] [µg] | functional similarity in tadpole assay [5]
1 | COC(=O)CCC(C)[C@H]1CCC2C3C(CC[C@@]21C)[C@@]1(C)CC[C@H](NCCCNCCCCNCCCN)C[C@H]1C[C@H]3O (stereo partly drawn) [drawing 60] | 8 (≈ 13.5 µM) | 64 (≈ 108 µM) | 2 (≈ 3.38 µM) | – | –
2 | CC(CCC(=O)O)[C@H]1CCC2C3C(CC[C@@]21C)[C@@]1(C)CC[C@H](NCCCNCCCCN)C[C@@H]1C[C@H]3O (stereo partly drawn) | – | – | – | > 10 | –
3 | CC(C)CCC[C@@H](C)[C@H]1CC[C@H]2[C@@H]3[C@H](O)C[C@H]4C[C@H](NCCCNCCCCN)CC[C@]4(C)[C@H]3CC[C@]12C [Compound 370] | – | – | – | – | pharmacologic activity similar to that seen for FX 3
4 | CC(C)CCCC(C)[C@H]1CCC2C3C(CC[C@@]21C)[C@@]1(C)CC[C@H](N)C[C@@H]1C[C@H]3O (stereo partly drawn) [drawing 55] | 2 (≈ 4.95 µM) | > 256 | 2 (≈ 4.95 µM) | – | –
5 | C=C(C)C(=O)CCC(C)[C@H]1CCC2C3C(CC[C@@]21C)[C@@]1(C)CC[C@H](NCCCNCCCCN)C[C@@H]1C[C@H]3O (stereo partly drawn) | 4 (≈ 7.35 µM) | 32 (≈ 58.8 µM) | 4 (≈ 7.35 µM) | – | –
6 | CC(C)CCC[C@@H](C)[C@H]1CC[C@H]2[C@@H]3[C@H](O)C[C@H]4C[C@@H](NCCCNCCCCN)CC[C@]4(C)[C@H]3CC[C@]12C [Compound 371] | – | – | – | – | effects like those produced by compound 1436
7 | COC(=O)CCC(C)[C@H]1CCC2C3C[C@@H](O)[C@H]4C[C@@H](NCCCNCCCCNCCCN)CC[C@]4(C)C3CC[C@@]21C (stereo partly drawn) [drawing 77] | 2 (≈ 3.38 µM) | 32 (≈ 54.2 µM) | 2 (≈ 3.38 µM) | – | –
8 | COC(=O)CCC(C)[C@H]1CCC2C3C(CC[C@@]21C)[C@@]1(C)CC[C@H](NCCN)C[C@H]1C[C@H]3O (stereo partly drawn) [drawing 58] | 32 (≈ 71.3 µM) | 64 (≈ 143 µM) | 16 (≈ 35.7 µM) | – | –
9 | COC(=O)CCC(C)[C@H]1CCC2C3CC[C@H]4C[C@@H](NCCCNCCCCNCCCN)CC[C@]4(C)C3CC[C@@]21C (stereo partly drawn) [drawing 75] | 1 to 2 (≈ 1.74 to 3.48 µM) | 32 (≈ 55.7 µM) | 2 (≈ 3.48 µM) | – | –
10 | CC(CCC(=O)O)[C@H]1CCC2C3CC[C@@H]4C[C@H](NCCCNCCCCNCCCN)CC[C@]4(C)C3C[C@H](O)[C@@]21C (stereo partly drawn) [drawing 73] | 4 (≈ 6.93 µM) | 8 to 16 (≈ 13.9 to 27.7 µM) | 4 (≈ 6.93 µM) | – | –
11 | CC(CCC(=O)O)[C@H]1CCC2C3C(CC[C@@]21C)[C@@]1(C)CC[C@@H](NCCCNCCCCNCCCN)C[C@H]1C[C@H]3O (stereo partly drawn) [drawing 61] | 8 (≈ 13.9 µM) | 64 (≈ 111 µM) | 8 (≈ 13.9 µM) | – | –
12 | CC(CCC(=O)O)[C@H]1CCC2C3CC[C@@H]4C[C@H](NCCN)CC[C@]4(C)C3C[C@H](O)[C@@]21C (stereo partly drawn) [drawing 66] | 16 to 32 (≈ 36.8 to 73.6 µM) | 64 (≈ 147 µM) | 32 (≈ 73.6 µM) | – | –
13 | COC(=O)CC[C@@H](C)[C@H]1CC[C@H]2[C@@H]3C[C@@H](O)[C@H]4C[C@H](NCCN)CC[C@]4(C)[C@H]3CC[C@]12C [Compound 431] | – | – | – | – | functionally similar to compound 1437
14 | CC(C)CCCC(C)[C@H]1CCC2C3C(CC[C@@]21C)[C@@]1(C)CC[C@H](NCCCNCCCCN)C[C@@H]1C[C@H]3O (stereo partly drawn) [drawing 57] | 4 (≈ 7.52 µM) | 64 (≈ 120 µM) | 2 (≈ 3.76 µM) | – | –
15 | CC(CCC(=O)O)[C@H]1CCC2C3C[C@@H](O)[C@H]4C[C@@H](NCCCNCCCCNCCCN)CC[C@]4(C)C3CC[C@@]21C (stereo partly drawn) | 16 (≈ 27.7 µM) | 16 (≈ 27.7 µM) | 4 (≈ 6.93 µM) | – | –
16 | COC(=O)CCC(C)[C@H]1CCC2C3C[C@@H](O)[C@H]4C[C@H](NCCCNCCCCNCCCN)CC[C@]4(C)C3CC[C@@]21C (stereo partly drawn) | 2 to 4 (≈ 3.38 to 6.77 µM) | 32 (≈ 54.2 µM) | 4 (≈ 6.77 µM) | – | –
17 | COC(=O)CC[C@@H](C)[C@H]1CC[C@H]2[C@@H]3C[C@@H](O)[C@H]4C[C@@H](NCCCNCCCCNCCCN)CC[C@]4(C)[C@H]3CC[C@]12C [Compound 466] | – | – | – | – | pharmacologic activity similar to that seen for FX 3
18 | COC(=O)CCC(C)[C@H]1CCC2C3CC[C@H]4C[C@H](NCCCNCCCCNCCCN)CC[C@]4(C)C3CC[C@@]21C (stereo partly drawn) [drawing 74] | 4 (≈ 6.96 µM) | 32 (≈ 55.7 µM) | 2 (≈ 3.48 µM) | – | –
19 | COC(=O)CCC(C)[C@H]1CCC2C3C[C@@H](O)[C@H]4C[C@@H](NCCN)CC[C@]4(C)C3CC[C@@]21C (stereo partly drawn) | 1 (≈ 2.23 µM) | 8 to 16 (≈ 17.8 to 35.7 µM) | 2 to 4 (≈ 4.46 to 8.91 µM) | – | –
20 | CC(CCC(=O)O)[C@H]1CCC2C3C(CC[C@@]21C)[C@@]1(C)CC[C@@H](NCCN)C[C@H]1C[C@H]3O (stereo partly drawn) | 32 (≈ 73.6 µM) | 64 (≈ 147 µM) | 64 (≈ 147 µM) | – | –
21 | COC(=O)CC[C@@H](C)[C@H]1CC[C@H]2[C@@H]3CC[C@H]4C[C@@H](NCCCNCCCCNCCCN)CC[C@]4(C)[C@H]3CC[C@]12C [Compound 459] | – | – | – | – | pharmacologic activity similar to that seen for FX 3
22 | CC(CCC(=O)O)[C@H]1CCC2C3C(CC[C@@]21C)[C@@]1(C)CC[C@H](NCCN)C[C@H]1C[C@H]3O (stereo partly drawn) [drawing 64] | 128 (≈ 294 µM) | 128 (≈ 294 µM) | 256 (≈ 589 µM) | – | –
23 | C[C@H](CCC(=O)O)[C@H]1CC[C@H]2[C@@H]3[C@H](O)C[C@@H]4C[C@@H](NCCCNCCCCNCCCN)CC[C@]4(C)[C@H]3CC[C@]12C [drawing 62] | 8 (≈ 13.9 µM) | 256 (≈ 444 µM) | 32 (≈ 55.5 µM) | – | –
